One block for each molecule: values may come before it.
Experiments:
Assay in all cases: electrochemical aptamer-based sensor, square-wave voltammetry titration (KDM)
[1] = test system: procaine (DNA, aptamer) AGACAAGGAAAATCCTTCAACGAAGTGGGTCG; details: undiluted bovine blood, room temperature and 37 °C; 0% carboxylate SAM; no Kd, upper plateau not reached
[2] = test system: vanc-28 (DNA, aptamer) GCGAGGGTACCGCTTAAAGTGGGTCGGC; details: PBS (ion concentrations not given), room temperature, 0% carboxylate (6-mercaptohexanol) SAM, immobilised aptamer
[3] = test system: vanc-45 (also printed vanc-48) (DNA, aptamer) CGAGGGTACCGCAATAGTACTTATTGTTCGCCTATTGTGGGTCGG; details: PBS (ion concentrations not given), room temperature, 0% carboxylate (6-mercaptohexanol) SAM, immobilised aptamer
[4] = test system: tryptophan (DNA, aptamer) CCGGTGGTGTAGTTCCGGCGTGGGGAAGG; details: PBS (ion concentrations not given), room temperature, 0% carboxylate SAM, immobilised aptamer, biphasic, higher affinity event

binding [1]: yes
SMILES: CCN(CC)CCOC(=O)c1ccc(N)cc1

Kd [2]: 0.6 ± 0.1 µM | Kd [3]: 15.2 ± 0.4 µM
SMILES: CN[C@H](CC(C)C)C(=O)N[C@H]1C(=O)N[C@@H](CC(N)=O)C(=O)N[C@H]2C(=O)N[C@H]3C(=O)N[C@H](C(=O)N[C@H](C(=O)O)c4cc(O)cc(O)c4-c4cc3ccc4O)[C@H](O)c3ccc(c(Cl)c3)Oc3cc2cc(c3O[C@@H]2O[C@H](CO)[C@@H](O)[C@H](O)[C@H]2O[C@H]2C[C@](C)(N)[C@H](O)[C@H](C)O2)Oc2ccc(cc2Cl)[C@H]1O

Kd [4]: 13.0 ± 1.4 µM
SMILES: N[C@@H](Cc1c[nH]c2ccccc12)C(=O)O

From publication PMC11803614 (2025)
